Measurements as given in article PMC9061857, “A fluorogenic probe for granzyme B enables in-biopsy evaluation and screening of response to anticancer immunotherapies” (Nature Communications, 2022).
Where no end group is shown, it is not given here.

Assays:
recombinant mouse GzmB = test: Reactivity against recombinant mouse GzmB (fluorescence); type: biochemical; details: 25 μM, 90 min, 37 °C
Experimental: and H5m (both at 25 μM) after incubation for 90 min at 37 °C with recombinant mouse
pro-GzmB (100 nM) after pre-activation with mouse cathepsin C (5.5 μg mL-1) for 4 h.
Excitation/emission wavelengths: 450 nm /510 nm. Data presented as mean values±SEM
(3 independent experiments with 3 technical replicates). Source data provided as a […]

recombinant human GzmB = target: T1, recombinant human GzmB (Homo sapiens, UniProt P10144); test: Kinetic measurements (Michaelis-Menten) with recombinant hGzmB; type: biochemical; parameters: cleavage rate of H5 by hGzmB: unit not given here
T1 construct: For active GzmB vs pro-GzmB, p < 0.0001
Experimental: Fluorescence-based assays with different enzymes were performed in the appropriate buffers. […] In experiments with Ac-IEPD-CHO (50 μM), the inhibitor was preincubated for 1 h with GzmB before the addition of any probe.
Supplementary Table 4. Kinetic values determined for hexapeptides H2-H5 against
Probe Sequence kcat kcat / KM

OVA-EL4 cancer cells = test: Time-course flow cytometry of OVA-EL4 cancer cells with OT-I CD8+ T cells; type: cell-based; parameters: unit not given here; details: H5 10 μM, Sytox Blue 1 μM
Text: Legends: viable (gray), H5-stained (green), apoptotic (red). […] Black arrows highlight T cells, yellow arrows highlight H5-stained intracellular GzmB puncta. […] Scale bar: 10 μm. f Flow cytometric analysis of OVA-EL4 cancer cells from experiments in e. Data as means ± SEM (n = 3). P-values from two-tailed t-tests. Source data (c, f) provided as a Source Data file.
We utilized CD8+ T cells expressing the OT-I transgenic receptor, which specifically targets cells presenting the OVA-derived […] antigen in the context of H-2kb and co-cultured them with […]-pulsed EL4 cancer cells (Fig. S11). T cells were counterstained with Cell Tracker Orange for ease of identification and incubated with probe H5 and the cell death marker Sytox Blue before time-lapse microscopy.

[1] = hGzmB 20 nM, 37 °C, Michaelis-Menten, n = 3

T1 sequence (P10144 21-247): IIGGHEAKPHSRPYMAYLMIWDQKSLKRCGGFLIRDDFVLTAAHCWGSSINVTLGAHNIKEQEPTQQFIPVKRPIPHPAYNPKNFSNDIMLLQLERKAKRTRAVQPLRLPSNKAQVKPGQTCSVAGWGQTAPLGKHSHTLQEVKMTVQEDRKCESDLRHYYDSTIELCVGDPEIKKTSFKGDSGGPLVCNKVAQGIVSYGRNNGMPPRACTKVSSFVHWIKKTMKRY

IEPDAL [H5, FRET hexapeptide IEPDAL with BODIPY-FL fluorophore at the N-terminal end and Dabcyl quencher]
response to mouse GzmB (recombinant mouse GzmB): good response
kcat (recombinant human GzmB; Supplementary Table 4, recombinant human GzmB): 117 s⁻¹
Km (recombinant human GzmB; [1]): 9.6 µM
kcat (recombinant human GzmB; [1]): 117 s⁻¹
cleavage rate of H5 by hGzmB (recombinant human GzmB; hGzmB 20 nM, [H5] 1 uM, Data 1): 8.4
cleavage rate of H5 by hGzmB (recombinant human GzmB; hGzmB 20 nM, [H5] 1 uM, Data 2): 5.5
cleavage rate of H5 by hGzmB (recombinant human GzmB; hGzmB 20 nM, [H5] 1 uM, Data 3): 6.0
cleavage rate of H5 by hGzmB (recombinant human GzmB; hGzmB 20 nM, [H5] 5 uM, Data 1): 48.9
cleavage rate of H5 by hGzmB (recombinant human GzmB; hGzmB 20 nM, [H5] 5 uM, Data 2): 44.9
cleavage rate of H5 by hGzmB (recombinant human GzmB; hGzmB 20 nM, [H5] 5 uM, Data 3): 43.3
cleavage rate of H5 by hGzmB (recombinant human GzmB; hGzmB 20 nM, [H5] 7.5 uM, Data 1): 58.5
cleavage rate of H5 by hGzmB (recombinant human GzmB; hGzmB 20 nM, [H5] 7.5 uM, Data 2): 69.9
cleavage rate of H5 by hGzmB (recombinant human GzmB; hGzmB 20 nM, [H5] 7.5 uM, Data 3): 72.5
cleavage rate of H5 by hGzmB (recombinant human GzmB; hGzmB 20 nM, [H5] 10 uM, Data 1): 75.6
cleavage rate of H5 by hGzmB (recombinant human GzmB; hGzmB 20 nM, [H5] 10 uM, Data 2): 81.3
cleavage rate of H5 by hGzmB (recombinant human GzmB; hGzmB 20 nM, [H5] 10 uM, Data 3): 63.2
cleavage rate of H5 by hGzmB (recombinant human GzmB; hGzmB 20 nM, [H5] 12.5 uM, Data 1): 89.7
cleavage rate of H5 by hGzmB (recombinant human GzmB; hGzmB 20 nM, [H5] 12.5 uM, Data 2): 89.4
cleavage rate of H5 by hGzmB (recombinant human GzmB; hGzmB 20 nM, [H5] 12.5 uM, Data 3): 82.2
cleavage rate of H5 by hGzmB (recombinant human GzmB; hGzmB 20 nM, [H5] 15 uM, Data 1): 88.0
cleavage rate of H5 by hGzmB (recombinant human GzmB; hGzmB 20 nM, [H5] 15 uM, Data 2): 88.2
cleavage rate of H5 by hGzmB (recombinant human GzmB; hGzmB 20 nM, [H5] 15 uM, Data 3): 73.1
cleavage rate of H5 by hGzmB (recombinant human GzmB; hGzmB 20 nM, [H5] 17.5 uM, Data 1): 82.4
cleavage rate of H5 by hGzmB (recombinant human GzmB; hGzmB 20 nM, [H5] 17.5 uM, Data 2): 92.3
cleavage rate of H5 by hGzmB (recombinant human GzmB; hGzmB 20 nM, [H5] 17.5 uM, Data 3): 81.2
cleavage rate of H5 by hGzmB (recombinant human GzmB; hGzmB 20 nM, [H5] 20 uM, Data 1): 100.4
cleavage rate of H5 by hGzmB (recombinant human GzmB; hGzmB 20 nM, [H5] 20 uM, Data 2): 99.8
cleavage rate of H5 by hGzmB (recombinant human GzmB; hGzmB 20 nM, [H5] 20 uM, Data 3): 89.3
H5+DAPI+ OVA-EL4 cancer cells (OVA-EL4 cancer cells; 0 h, Data 1): 0.47
H5+DAPI- OVA-EL4 cancer cells (OVA-EL4 cancer cells; 0 h, Data 1): 1.17
H5-DAPI+ OVA-EL4 cancer cells (OVA-EL4 cancer cells; 0 h, Data 1): 0.04
H5+DAPI+ OVA-EL4 cancer cells (OVA-EL4 cancer cells; 0 h, Data 2): 0.46
H5+DAPI- OVA-EL4 cancer cells (OVA-EL4 cancer cells; 0 h, Data 2): 0.35
H5-DAPI+ OVA-EL4 cancer cells (OVA-EL4 cancer cells; 0 h, Data 2): 0.011
H5+DAPI+ OVA-EL4 cancer cells (OVA-EL4 cancer cells; 0 h, Data 3): 0.43
H5+DAPI- OVA-EL4 cancer cells (OVA-EL4 cancer cells; 0 h, Data 3): 0.23
H5-DAPI+ OVA-EL4 cancer cells (OVA-EL4 cancer cells; 0 h, Data 3): 0.00
H5+DAPI+ OVA-EL4 cancer cells (OVA-EL4 cancer cells; 1 h, Data 1): 0.60
H5+DAPI- OVA-EL4 cancer cells (OVA-EL4 cancer cells; 1 h, Data 1): 1.57
H5-DAPI+ OVA-EL4 cancer cells (OVA-EL4 cancer cells; 1 h, Data 1): 0.03
H5+DAPI+ OVA-EL4 cancer cells (OVA-EL4 cancer cells; 1 h, Data 2): 0.80
H5+DAPI- OVA-EL4 cancer cells (OVA-EL4 cancer cells; 1 h, Data 2): 1.83
H5-DAPI+ OVA-EL4 cancer cells (OVA-EL4 cancer cells; 1 h, Data 2): 0.053
H5+DAPI+ OVA-EL4 cancer cells (OVA-EL4 cancer cells; 1 h, Data 3): 0.49
H5+DAPI- OVA-EL4 cancer cells (OVA-EL4 cancer cells; 1 h, Data 3): 1.53
H5-DAPI+ OVA-EL4 cancer cells (OVA-EL4 cancer cells; 1 h, Data 3): 0.026
H5+DAPI+ OVA-EL4 cancer cells (OVA-EL4 cancer cells; 2 h, Data 1): 0.82
H5+DAPI- OVA-EL4 cancer cells (OVA-EL4 cancer cells; 2 h, Data 1): 3.01
H5-DAPI+ OVA-EL4 cancer cells (OVA-EL4 cancer cells; 2 h, Data 1): 0.047
H5+DAPI+ OVA-EL4 cancer cells (OVA-EL4 cancer cells; 2 h, Data 2): 0.66
H5+DAPI- OVA-EL4 cancer cells (OVA-EL4 cancer cells; 2 h, Data 2): 2.90
H5-DAPI+ OVA-EL4 cancer cells (OVA-EL4 cancer cells; 2 h, Data 2): 0.06
H5+DAPI+ OVA-EL4 cancer cells (OVA-EL4 cancer cells; 2 h, Data 3): 0.58
H5+DAPI- OVA-EL4 cancer cells (OVA-EL4 cancer cells; 2 h, Data 3): 2.81
H5-DAPI+ OVA-EL4 cancer cells (OVA-EL4 cancer cells; 2 h, Data 3): 0.038
H5+DAPI+ OVA-EL4 cancer cells (OVA-EL4 cancer cells; 3 h, Data 1): 2.18
H5+DAPI- OVA-EL4 cancer cells (OVA-EL4 cancer cells; 3 h, Data 1): 2.12
H5-DAPI+ OVA-EL4 cancer cells (OVA-EL4 cancer cells; 3 h, Data 1): 0.05
H5+DAPI+ OVA-EL4 cancer cells (OVA-EL4 cancer cells; 3 h, Data 2): 1.34
H5+DAPI- OVA-EL4 cancer cells (OVA-EL4 cancer cells; 3 h, Data 2): 2.16
H5-DAPI+ OVA-EL4 cancer cells (OVA-EL4 cancer cells; 3 h, Data 2): 0.07
H5+DAPI+ OVA-EL4 cancer cells (OVA-EL4 cancer cells; 3 h, Data 3): 1.51
H5+DAPI- OVA-EL4 cancer cells (OVA-EL4 cancer cells; 3 h, Data 3): 1.83
H5-DAPI+ OVA-EL4 cancer cells (OVA-EL4 cancer cells; 3 h, Data 3): 0.06
H5+DAPI+ OVA-EL4 cancer cells (OVA-EL4 cancer cells; 4 h, Data 1): 3.60
H5+DAPI- OVA-EL4 cancer cells (OVA-EL4 cancer cells; 4 h, Data 1): 0.63
H5-DAPI+ OVA-EL4 cancer cells (OVA-EL4 cancer cells; 4 h, Data 1): 0.09
H5+DAPI+ OVA-EL4 cancer cells (OVA-EL4 cancer cells; 4 h, Data 2): 3.55
H5+DAPI- OVA-EL4 cancer cells (OVA-EL4 cancer cells; 4 h, Data 2): 0.46
H5-DAPI+ OVA-EL4 cancer cells (OVA-EL4 cancer cells; 4 h, Data 2): 0.05
H5+DAPI+ OVA-EL4 cancer cells (OVA-EL4 cancer cells; 4 h, Data 3): 2.80
H5+DAPI- OVA-EL4 cancer cells (OVA-EL4 cancer cells; 4 h, Data 3): 0.60
H5-DAPI+ OVA-EL4 cancer cells (OVA-EL4 cancer cells; 4 h, Data 3): 0.026
H5+DAPI+ OVA-EL4 cancer cells (OVA-EL4 cancer cells; 5 h, Data 1): 8.18
H5+DAPI- OVA-EL4 cancer cells (OVA-EL4 cancer cells; 5 h, Data 1): 0.17
H5-DAPI+ OVA-EL4 cancer cells (OVA-EL4 cancer cells; 5 h, Data 1): 0.053
H5+DAPI+ OVA-EL4 cancer cells (OVA-EL4 cancer cells; 5 h, Data 2): 8.22
H5+DAPI- OVA-EL4 cancer cells (OVA-EL4 cancer cells; 5 h, Data 2): 0.12
H5-DAPI+ OVA-EL4 cancer cells (OVA-EL4 cancer cells; 5 h, Data 2): 0.10
H5+DAPI+ OVA-EL4 cancer cells (OVA-EL4 cancer cells; 5 h, Data 3): 16.90
H5+DAPI- OVA-EL4 cancer cells (OVA-EL4 cancer cells; 5 h, Data 3): 0.10
H5-DAPI+ OVA-EL4 cancer cells (OVA-EL4 cancer cells; 5 h, Data 3): 0.14
H5+DAPI+ OVA-EL4 cancer cells (OVA-EL4 cancer cells; 6 h, Data 1): 11.60
H5+DAPI- OVA-EL4 cancer cells (OVA-EL4 cancer cells; 6 h, Data 1): 0.09
H5-DAPI+ OVA-EL4 cancer cells (OVA-EL4 cancer cells; 6 h, Data 1): 0.10
H5+DAPI+ OVA-EL4 cancer cells (OVA-EL4 cancer cells; 6 h, Data 2): 10.50
H5+DAPI- OVA-EL4 cancer cells (OVA-EL4 cancer cells; 6 h, Data 2): 0.11
H5-DAPI+ OVA-EL4 cancer cells (OVA-EL4 cancer cells; 6 h, Data 2): 0.10
H5+DAPI+ OVA-EL4 cancer cells (OVA-EL4 cancer cells; 6 h, Data 3): 18.10
H5+DAPI- OVA-EL4 cancer cells (OVA-EL4 cancer cells; 6 h, Data 3): 0.076
H5-DAPI+ OVA-EL4 cancer cells (OVA-EL4 cancer cells; 6 h, Data 3): 0.07
